Where two headings read alike, the source gives them in different places.
What was measured:
[1] = system: Human T-lymphoblastic leukemia cell line CEM; assay: In vitro cytotoxic activity, Calcein AM assay, CEM; assay type: cell-based; settings: 72 hours
Method in brief: (§1)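 Continuous 72 h drug exposure of cultured cells, followed by 1 h Calcein AM staining to count metabolically active cells; survival relative to untreated wells gave GI50.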

[2] = system: breast carcinoma cell lines MCF-7; assay: In vitro cytotoxic activity, Calcein AM assay, MCF7; assay type: cell-based, human; settings: read-out: IC 50 MCF7
Method in brief: as §1

[3] = system: mouse fibroblasts NIH3T3; assay: In vitro cytotoxic activity, Calcein AM assay, NIH-3T3; assay type: cell-based; settings: read-out: IC 50 NIH-3T3
Method in brief: as §1

[4] = system: promyelocytic HL-60; assay: In vitro cytotoxic activity, Calcein AM assay, HL60; assay type: cell-based, human; settings: read-out: IC 50 HL60
Method in brief: as §1

[5] = system: human malignant melanoma cells G361; assay: In vitro cytotoxic activity, Calcein AM assay, G-361; assay type: cell-based; settings: read-out: IC 50 G-361
Excerpt: One of the parameters used, as the basis for cytotoxicity assays, is the metabolic activity of viable cells. For example, a microtiter assay, which uses the Calcein AM, is now widely used to quantitate cell proliferation and cytotoxicity. For instance, this assay is used in drug screening programs and in chemosensitivity testing. Because only metabolically active cells cleave Calcein AM, these assays detect viable cells exclusively. The quantity of reduced Calcein AM corresponds to the number of vital cells in the culture.
Human T-lymphoblastic leukemia cell line CEM; promyelocytic HL-60 and monocytic U937 leukemias; breast carcinoma cell lines MCF-7; cervical carcinoma cells HELA; mouse fibroblasts NIH3T3; human erythroleukaemia K562 and human malignant melanoma cells G361 were used for routine screening of compounds. The cells were maintained in Nunc/Corning 80 cm^2 plastic tissue culture flasks and cultured in cell culture medium (DMEM with 5 g/l glucose, 2 mM glutamine, 100 U/ml penicillin, 100 μg/ml streptomycin, 10% fetal calf serum and sodium bicarbonate).
The cell suspensions that were prepared and diluted according to the particular cell type and the expected target cell density (10^4 cells per well based on cell growth characteristics) were added by pipette (80 μl) into 96/well microtiter plates. Inoculates were allowed a pre-incubation period of 24 hours at 37° C. and 5% CO2 for stabilisation. Four-fold dilutions of the intended test concentration were added at time zero in 20 μl aliquots to the microtiter plate wells. Usually, test compound was evaluated at six 4-fold dilutions. In routine testing, the highest well concentration was 166.7 μM, but it can be the matter of change dependent on the agent. All drug concentrations were examined in duplicates. Incubations of cells with the test compounds lasted for 72 hours at 37° C., in 5% CO2 atmosphere and 100% humidity. At the end of incubation period, the cells were assayed by using the Calcein AM. Ten microliters of the stock solution were pipetted into each well and incubated further for 1 hours. Fluorescence (FD) was measured with the Labsystem FIA Reader Fluoroscan Ascent (UK). The tumour cell survival (GI50) was calculated using the following equitation: GI50=(FDdrug exposed well/mean FDcontrol wells)×100%. The GI50 value, the drug concentration lethal to 50% of the tumour cells, was calculated from the obtained dose response curves (FIG. 3).

[6] = system: human erythroleukaemia K562; assay: In vitro cytotoxic activity, Calcein AM assay, K-562; assay type: cell-based; settings: read-out: IC 50 K-562
Method in brief: as §1

[7] = system: HOS; assay: In vitro cytotoxic activity, Calcein AM assay, HOS; assay type: cell-based; settings: 72 hours

Row | SMILES | IC50 [1] [µM] | IC50 ([2]; 72 hours) [µM] | IC50 ([3]; 72 hours) [µM] | IC50 ([4]; 72 hours) [µM] | IC50 ([5]; 72 hours) [µM] | IC50 ([6]; 72 hours) [µM] | IC50 [7] [µM] | IC50 ([1]; Homo sapiens) [µM] | IC50 ([2]; Homo sapiens, MCF7, 72 hours) [µM] | IC50 ([3]; Mus musculus, NIH3T3, 72 hours) [µM] | IC50 ([4]; Homo sapiens, HL-60, 72 hours) [µM] | IC50 ([5]; Homo sapiens, G-361, 72 hours) [µM] | IC50 ([6]; Homo sapiens, K562, 72 hours) [µM] | IC50 ([7]; Homo sapiens, HOS) [µM]
1 | COc1ccccc1CNc1nc(N)nc2c1ncn2[C@@H]1O[C@H](CO)[C@@H](O)[C@H]1O [R2 = NH2,2-methoxyxybenzylamino, 2-amino-6-(2-methoxybenzylamino)purine riboside] | 12.8 | > 167 | > 167 | 7.8 | > 167 | 34.9 | 27.8 | – | – | – | – | – | – | –
2 | Nc1nc(NCc2cccc(F)c2)c2ncn([C@@H]3O[C@H](CO)[C@@H](O)[C@H]3O)c2n1 [R2 = NH2,3-fluorobenzylamino] | 21 | 36 | > 167 | 3.4 | 21 | 12 | > 167 | – | – | – | – | – | – | –
3 | COc1cccc(CNc2nc(N)nc3c2ncn3[C@@H]2O[C@H](CO)[C@@H](O)[C@H]2O)c1 [R2 = NH2,3-methoxyxybenzylamino] | 13.8 | > 167 | > 167 | 8.9 | > 167 | > 167 | > 167 | – | – | – | – | – | – | –
4 | COc1ccccc1CNc1nc(SC)nc2c1ncn2[C@@H]1O[C@H](CO)[C@@H](O)[C@H]1O [R2 = SCH3,2-methoxyxybenzylamino] | 11.5 | > 167 | > 167 | 10.2 | > 167 | 34.8 | 34.3 | – | – | – | – | – | – | –
5 | CSc1nc(NCc2cccc(F)c2)c2ncn([C@@H]3O[C@H](CO)[C@@H](O)[C@H]3O)c2n1 [R2 = SCH3,3-fluorobenzylamino] | 8.5 | 31 | > 167 | 5.2 | 28 | 7.9 | > 167 | – | – | – | – | – | – | –
6 | COc1cccc(CNc2nc(SC)nc3c2ncn3[C@@H]2O[C@H](CO)[C@@H](O)[C@H]2O)c1 [R2 = SCH3,3-methoxyxybenzylamino] | 16.5 | > 167 | > 167 | 8.8 | > 167 | > 167 | > 167 | – | – | – | – | – | – | –
7 | Nc1ncnc2c1ncn2[C@@H]1O[C@H](CO)[C@@H](O)[C@H]1O [adenosine] | – | – | – | – | – | – | – | > 167 | > 167 | > 167 | > 167 | > 167 | > 167 | > 167
8 | C/C(=C\CNc1ncnc2c1ncn2[C@@H]1O[C@H](CO)[C@@H](O)[C@H]1O)CO [zeatin riboside, reference compound] | > 167 | > 167 | > 167 | > 167 | > 167 | > 167 | > 167 | – | – | – | – | – | – | –

— US8119614B2, “Substitution derivatives of N6-benzyladenosine, methods of their preparation, their use for preparation of drugs, cosmetic preparations and growth regulators, pharmaceutical preparations, cosmetic preparations and growth regulators containing these compounds” (Ustav Experimentalni Botaniky Akademie Ved Ceske Republiky, priority 2002, dated 2012)
